In patent US20230109708A1, “Cellular Uptake” (Axcess (UK) Ltd, priority 2020, published 2023):
Like-named read-outs stand apart in the source and are kept apart here.

Tests used:
Caco-2 cells [1] = experiment: FITC-albumin uptake with chenodeoxycholate and EDTA, DTPA or EGTA, fluorescence microscope score (Example 9); format: cell-based; conditions: 30 minutes; for enhancement of uptake over and above that seen with chenodeoxycholate alone: agent added at 1 mg/ml to chenodeoxycholate; for fluorescence score, uptake of FITC-albumin: EDTA, DTPA or EGTA 1 mg/ml where present
Caco-2 cells [2] = experiment: FITC-albumin uptake after chlorpromazine preincubation, fluorescence microscope score (Example 4); format: cell-based; set-up: fluorescence score, uptake of FITC-albumin: key to the marks not given beside the values; conditions: for effect of preincubation with inhibitor on chenodeoxycholate-stimulated uptake of FITC-albumin: preincubation ten minutes, amiloride and nystatin in similar experiments
Caco-2 cells [3] = system: Caco-2 cells
Caco-2 cells [4] = conditions: for enhancement of uptake of the protein (FITC-albumin): chenodeoxycholate 0.5 mg/ml, EDTA or orthophenanthroline 5 mg/ml, alone or in combination
Caco-2 cells [5] = experiment: Uptake of FITC-insulin into Caco-2 cells, confocal microscope (Example 1); format: cell-based; conditions: for uptake of FITC-insulin into cells (photomicrographs): FITC-insulin 100 ug/ml alone or with sodium chenodeoxycholate 1 or 2 mg/ml, 37° C. half an hour
Description: The supernatant was then removed, replaced with 0.5 ml of 4% paraformaldehyde solution, and incubated at room temperature for 15 minutes. The paraformaldehyde was then removed, the wells were washed three times with phosphate-buffered saline, and the coverslips then treated with mounting medium and viewed under a confocal microscope. Images are set out in FIG. 1.

Caco-2 cells [6] = experiment: FITC-hGH uptake with chenodeoxycholate, cells in suspension, plate reader (Example 13); format: cell-based; conditions: FITC-hGH 100 ug/ml; chenodeoxycholate at different concentrations; 15 minutes
Description: 1 ml of FITC-hGH alone (concentration 100 ug/ml) or FITC-hGH containing chenodeoxycholate at different concentrations were then added.

Caco-2 cells [7] = system: Caco-2 cells; set-up: key to the marks not given beside the values; conditions: twenty minutes, PG 2:1 wt:wt where present
Caco-2 cells [8] = conditions: chenodeoxycholate and EDTA alone or in combination at 1 mg/ml; 15 minutes; cells in suspension
Caco-2 cells [9] = experiment: Uptake of FITC-albumin or FITC-Casein with chenodeoxycholate, fluorescence microscope score (Example 6); format: cell-based; conditions: FITC-labelled protein 100 ug/ml with chenodeoxycholate
Source text: The experiment was repeated on two separate occasions on different days.

IEC6 cell line = conditions: chenodeoxycholate 0.5 mg/ml; different concentrations of EDTA; 15 minutes
[10] = column Concentration of Chenodeoxycholate 0.5 mg/ml, sample alone, no preincubation
[11] = column Concentration of Chenodeoxycholate 1.0 mg/ml, sample alone, no preincubation
[12] = column Concentration of Chenodeoxycholate 1.5 mg/ml, sample alone, no preincubation

With `O=C(O)CN(CCOCCOCCN(CC(=O)O)CC(=O)O)CC(=O)O` [EGTA] the “enhancement of uptake over and above that seen with chenodeoxycholate alone” value (Caco-2 cells [1]) was “not”.
For `CN(C)CCCN1c2ccccc2Sc2ccc(Cl)cc21` [Chlorpromazine, chlorpromazine], the “fluorescence score, uptake of FITC-albumin” value (from here on “fluorescence score, uptake”) (Caco-2 cells [2]; 5000 ug/mL) was “++” and the “effect of preincubation with inhibitor on chenodeoxycholate-stimulated uptake of FITC-albumin” value (from here on “effect of preincubation with inhibitor”) (Caco-2 cells [2]) was “concentration-dependent inhibition of uptake”.
In the case of `O=C(O)CN(CCN(CC(=O)O)CC(=O)O)CCN(CC(=O)O)CC(=O)O` [DTPA], the “enhancement of uptake over and above that seen with chenodeoxycholate alone” value (Caco-2 cells [1]) is reported as “not”.
With `C[C@H](CCC(=O)O)[C@H]1CC[C@H]2[C@@H]3[C@@H](O)C[C@@H]4C[C@H](O)CC[C@]4(C)[C@H]3CC[C@]12C` [Urso, sodium ursodeoxycholate] the “fluorescence score, uptake” value (Caco-2 cells [3]; Urso preincubation 0.1 mg/ml, Chenodeoxycholate 0.5 mg/ml) was “−”, the “fluorescence score, uptake” value (Caco-2 cells [3]; Urso preincubation 0.1 mg/ml, Chenodeoxycholate 1.0 mg/ml) was “++” and the “fluorescence score, uptake” value (Caco-2 cells [3]; Urso preincubation 0.1 mg/ml, Chenodeoxycholate 1.5 mg/ml) was “++”. The “fluorescence score, uptake” value (Caco-2 cells [3]; Urso preincubation 0.5 mg/ml, Chenodeoxycholate 0.5 mg/ml) was “−”, the “fluorescence score, uptake” value (Caco-2 cells [3]; Urso preincubation 0.5 mg/ml, Chenodeoxycholate 1.0 mg/ml) was “+” and the “fluorescence score, uptake” value (Caco-2 cells [3]; Urso preincubation 0.5 mg/ml, Chenodeoxycholate 1.5 mg/ml) was “++”. The “fluorescence score, uptake” value (Caco-2 cells [3]; [10]) was “−”, the “fluorescence score, uptake” value (Caco-2 cells [3]; [11]) was “−” and the “fluorescence score, uptake” value (Caco-2 cells [3]; [12]) was “−”. The “effect of preincubation on chenodeoxycholate-stimulated uptake of FITC-albumin” value (Caco-2 cells [3]; preincubation ten minutes) was “concentration-dependent inhibition of uptake”.
In the case of `c1cnc2c(c1)ccc1cccnc12` [o-phenanthroline], the “enhancement of uptake of the protein (FITC-albumin)” value (Caco-2 cells [4]) is reported as “does not have this effect”.
In the case of `N=C(N)NC(=O)c1nc(Cl)c(N)nc1N` [amiloride], the “effect of preincubation with inhibitor” value (Caco-2 cells [2]) is reported as “no reduction in uptake”.
In the case of `C[C@H](CCC(=O)O)[C@H]1CC[C@H]2[C@@H]3[C@H](O)C[C@@H]4C[C@H](O)CC[C@]4(C)[C@H]3CC[C@]12C` [Cheno alone, sodium chenodeoxycholate], the “uptake of FITC-insulin into cells (photomicrographs)” value (Caco-2 cells [5]) is reported as “uptake is enhanced”, the “fluorescent material in vacuoles within the cells” value (Caco-2 cells [5]; FITC-insulin 100 ug/ml, higher concentration of the bile salt (2 mg/ml)) is reported as “clearly being seen in vacuoles within the cells” and the “fluorescence score, uptake” value (Caco-2 cells [2]; Cheno 1.0 mg/ml, Chlorpromazine 0 mg/ml) is reported as “+++”. The “fluorescence score, uptake” value (Caco-2 cells [2]; Cheno 1.5 mg/ml, Chlorpromazine 0 mg/ml) was “++”, the “fluorescence score, uptake” value (Caco-2 cells [1]; Chenodeoxycholate 0.5 mg/ml) was “+” and the “fluorescence score, uptake” value (Caco-2 cells [1]; Chenodeoxycholate 1 mg/ml) was “++”. The “uptake of hGH (FITC-hGH) into cells” value (Caco-2 cells [6]) was “enhances the uptake of hGH into cells in a dose-dependent manner”, the “fluorescence score, uptake” value (Caco-2 cells [3]; [10]) was “+” and the “fluorescence score, uptake” value (Caco-2 cells [3]; [11]) was “+++”. The “fluorescence score, uptake” value (Caco-2 cells [3]; [12]) was “+++”, the “fluorescence score, uptake” value (Caco-2 cells [7]; Concentration of Bile Salt 1.0 mg/ml) was “++” and the “fluorescence score, uptake” value (Caco-2 cells [7]; Concentration of Bile Salt 1.5 mg/ml) was “+++”. For the same compound, the “fluorescence score, uptake” value (Caco-2 cells [4]; Chenodeoxycholate 0.5 mg/ml, EDTA or orthophenanthroline 5 mg/ml where present, twenty-five minutes) was “+”, the “enhancement of uptake of the protein (FITC-albumin)” value (Caco-2 cells [4]) was “neither chenodeoxycholate nor EDTA were able to enhance uptake” and the “enhancement of uptake of FITC-albumin” value (Caco-2 cells [8]) was “too low to enhance uptake”.
For `C[C@@H]1[C@H](O)[C@@H](C)/C=C/C=C/CC/C=C/C=C/C=C/C=C/C(O[C@H]2O[C@H](C)[C@@H](O)[C@H](N)[C@@H]2O)CC2O[C@](O)(CC(O)C(O)CCC(O)CC(O)CC(O)CC(=O)O[C@H]1C)CC(O)C2C(=O)O` (some centres unmarked) [nystatin], the “effect of preincubation with inhibitor” value (Caco-2 cells [2]) was “no reduction in uptake”.
With Casein the “extent of chenodeoxycholate-mediated uptake of the protein” value (Caco-2 cells [9]) was “uptake of a similar extent”.
`O=C(O)CN(CCN(CC(=O)O)CC(=O)O)CC(=O)O` [EDTA] was tested, and the “enhancement of uptake of BSA by chenodeoxycholate in IEC6 cells” value (IEC6 cell line) was “augmented by EDTA in a dose-dependent fashion”.
“insulin: FITC-insulin, fluorescent labelled protein cargo” was tested, and the “uptake of FITC-insulin into cells (photomicrographs)” value (Caco-2 cells [5]) was “very little uptake”.
